Results on nine compounds are retold here after ChEMBL document CHEMBL5465560, “Selectivity Literature for EUbOPEN Chemogenomic Library” (2024).

For test [1], the target named is Calcium/calmodulin-dependent protein kinase type 1D (Homo sapiens) (UniProt Q8IU85). In words: Selectivity interaction (KinomeScan (DiscoverX)) EUB0000595a CAMK1D. The note with it: at 10 µM.
In test [2] the target is T1, Tyrosine-protein kinase Tec (Homo sapiens) (UniProt P42680).
T1 sequence (whole entry): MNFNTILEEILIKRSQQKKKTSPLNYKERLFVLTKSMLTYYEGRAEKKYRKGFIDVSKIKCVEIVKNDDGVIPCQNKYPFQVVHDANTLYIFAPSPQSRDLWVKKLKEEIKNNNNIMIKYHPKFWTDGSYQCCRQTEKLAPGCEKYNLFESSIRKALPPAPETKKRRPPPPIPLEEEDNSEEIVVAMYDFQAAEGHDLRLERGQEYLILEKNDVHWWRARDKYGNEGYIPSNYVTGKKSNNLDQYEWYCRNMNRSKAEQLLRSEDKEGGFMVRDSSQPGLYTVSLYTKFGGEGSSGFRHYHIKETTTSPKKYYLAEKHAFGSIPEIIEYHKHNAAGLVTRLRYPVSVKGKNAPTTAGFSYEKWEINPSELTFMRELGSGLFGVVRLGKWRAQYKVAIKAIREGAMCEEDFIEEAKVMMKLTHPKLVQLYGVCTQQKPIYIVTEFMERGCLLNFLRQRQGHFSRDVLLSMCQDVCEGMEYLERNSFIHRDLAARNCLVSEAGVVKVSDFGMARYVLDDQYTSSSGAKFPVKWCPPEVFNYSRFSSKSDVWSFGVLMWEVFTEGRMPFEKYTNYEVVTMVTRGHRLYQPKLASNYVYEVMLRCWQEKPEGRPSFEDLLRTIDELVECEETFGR
The note with it: at 10 µM.

Test [3] concerns the target Dual specificity protein kinase CLK2 (Homo sapiens, UniProt P49760). In words: Selectivity interaction (KinomeScan (DiscoverX)) EUB0000666a CLK2. Conditions: at 10 µM.
Test [4] has as its target Phosphatidylinositol 4,5-bisphosphate 3-kinase catalytic subunit gamma isoform (Homo sapiens) (UniProt P48736). The test is described as follows: Selectivity interaction (KinomeScan (DiscoverX)) EUB0000607a PIK3CG. The note with it: at 10 µM.
In test [5] the test system is Tyrosine-protein kinase ABL1 (Homo sapiens), P00519 [F317I]. Conditions: at 10 µM.
Chain of Tyrosine-protein kinase ABL1 (Homo sapiens), P00519 [F317I] (P00519 whole entry F317I): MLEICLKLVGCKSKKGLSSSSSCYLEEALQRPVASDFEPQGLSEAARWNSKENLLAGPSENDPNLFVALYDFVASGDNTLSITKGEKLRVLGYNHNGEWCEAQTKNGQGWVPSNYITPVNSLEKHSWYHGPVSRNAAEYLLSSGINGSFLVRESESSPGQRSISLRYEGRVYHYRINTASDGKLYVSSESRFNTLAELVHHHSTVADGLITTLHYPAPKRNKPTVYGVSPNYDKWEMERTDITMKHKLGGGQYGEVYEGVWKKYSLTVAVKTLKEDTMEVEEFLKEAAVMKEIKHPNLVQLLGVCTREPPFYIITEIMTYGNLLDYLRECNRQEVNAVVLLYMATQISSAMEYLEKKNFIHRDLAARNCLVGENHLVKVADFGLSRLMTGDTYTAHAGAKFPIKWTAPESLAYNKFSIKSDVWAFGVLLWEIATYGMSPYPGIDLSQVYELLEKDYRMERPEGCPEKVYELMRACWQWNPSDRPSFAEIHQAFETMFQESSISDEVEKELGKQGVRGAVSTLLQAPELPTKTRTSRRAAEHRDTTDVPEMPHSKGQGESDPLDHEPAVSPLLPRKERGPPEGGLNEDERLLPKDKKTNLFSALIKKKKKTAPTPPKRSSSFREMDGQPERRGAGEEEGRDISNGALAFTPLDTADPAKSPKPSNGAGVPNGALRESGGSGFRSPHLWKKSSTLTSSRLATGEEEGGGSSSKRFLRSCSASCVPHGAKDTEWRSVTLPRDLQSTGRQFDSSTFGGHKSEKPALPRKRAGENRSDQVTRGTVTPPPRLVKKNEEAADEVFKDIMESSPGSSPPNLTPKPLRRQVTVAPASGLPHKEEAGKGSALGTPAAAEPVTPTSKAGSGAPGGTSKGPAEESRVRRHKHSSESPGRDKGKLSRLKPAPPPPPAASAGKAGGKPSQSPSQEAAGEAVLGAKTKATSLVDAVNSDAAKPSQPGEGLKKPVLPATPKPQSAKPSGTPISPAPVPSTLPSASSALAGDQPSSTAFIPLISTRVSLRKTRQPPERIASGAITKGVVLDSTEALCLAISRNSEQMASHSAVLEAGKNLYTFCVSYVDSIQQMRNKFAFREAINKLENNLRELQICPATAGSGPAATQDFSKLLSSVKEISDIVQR
Test [6] has as its target Serine/threonine-protein kinase pim-2 (Homo sapiens, UniProt Q9P1W9). In words: Selectivity interaction (Kinase panel (literature)) EUB0001199aCl PIM2. The note with it: at 1 µM.
Test [7] has as its target T2, Tyrosine-protein kinase Mer (Homo sapiens) (UniProt Q12866).
T2 sequence (whole entry): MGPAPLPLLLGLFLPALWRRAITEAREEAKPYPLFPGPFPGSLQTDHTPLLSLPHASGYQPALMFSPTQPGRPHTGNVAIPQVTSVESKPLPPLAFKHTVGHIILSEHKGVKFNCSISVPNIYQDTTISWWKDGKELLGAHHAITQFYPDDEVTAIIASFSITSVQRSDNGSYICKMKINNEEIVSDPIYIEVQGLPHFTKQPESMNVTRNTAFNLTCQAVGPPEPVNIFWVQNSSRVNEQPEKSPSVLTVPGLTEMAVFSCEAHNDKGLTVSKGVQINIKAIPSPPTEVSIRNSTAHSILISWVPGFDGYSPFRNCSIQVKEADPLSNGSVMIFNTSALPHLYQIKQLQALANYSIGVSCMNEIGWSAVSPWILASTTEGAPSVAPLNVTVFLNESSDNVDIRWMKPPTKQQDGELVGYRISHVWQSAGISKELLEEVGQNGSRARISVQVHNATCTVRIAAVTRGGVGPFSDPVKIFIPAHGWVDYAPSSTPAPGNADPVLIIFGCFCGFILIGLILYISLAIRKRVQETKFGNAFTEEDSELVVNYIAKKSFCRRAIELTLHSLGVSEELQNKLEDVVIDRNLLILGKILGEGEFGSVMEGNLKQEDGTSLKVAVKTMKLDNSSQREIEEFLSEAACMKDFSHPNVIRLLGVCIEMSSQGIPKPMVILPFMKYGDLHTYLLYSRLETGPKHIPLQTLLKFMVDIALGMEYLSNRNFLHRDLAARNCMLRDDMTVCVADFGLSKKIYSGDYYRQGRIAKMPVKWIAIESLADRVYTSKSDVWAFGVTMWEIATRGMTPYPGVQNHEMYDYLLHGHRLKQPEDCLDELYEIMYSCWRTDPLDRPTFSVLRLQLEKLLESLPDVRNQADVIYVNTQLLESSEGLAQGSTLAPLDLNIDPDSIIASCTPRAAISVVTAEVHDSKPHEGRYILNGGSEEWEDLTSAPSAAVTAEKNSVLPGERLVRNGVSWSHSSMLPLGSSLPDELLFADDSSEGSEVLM
In words: Selectivity interaction (Ambit KINOMEscan and KiNATiv profiling in Jurkat cells) EUB0000090b MERTK. In kind it is cell-based. Conditions: at 1 µM.

Test [8] has as its target Mitogen-activated protein kinase kinase kinase 10 (Homo sapiens) (UniProt Q02779). In words: Selectivity interaction (KinomeScan (DiscoverX)) EUB0000092b MAP3K10. The note with it: at 10 µM.
Test [9] addresses Ribosomal protein S6 kinase alpha-5 (Homo sapiens) (UniProt O75582). In words: Selectivity interaction (KinomeScan (DiscoverX)) EUB0000092b RPS6KA5. The note with it: at 10 µM.
The target of test [10] is Serine/threonine-protein kinase SIK2 (Homo sapiens) (UniProt Q9H0K1). The test is described as follows: Selectivity interaction (KinomeScan (DiscoverX)) EUB0001079a SIK2. Conditions: at 1 µM.
Chain of Serine/threonine-protein kinase SIK2 (Homo sapiens) (Q9H0K1 whole entry, looked up): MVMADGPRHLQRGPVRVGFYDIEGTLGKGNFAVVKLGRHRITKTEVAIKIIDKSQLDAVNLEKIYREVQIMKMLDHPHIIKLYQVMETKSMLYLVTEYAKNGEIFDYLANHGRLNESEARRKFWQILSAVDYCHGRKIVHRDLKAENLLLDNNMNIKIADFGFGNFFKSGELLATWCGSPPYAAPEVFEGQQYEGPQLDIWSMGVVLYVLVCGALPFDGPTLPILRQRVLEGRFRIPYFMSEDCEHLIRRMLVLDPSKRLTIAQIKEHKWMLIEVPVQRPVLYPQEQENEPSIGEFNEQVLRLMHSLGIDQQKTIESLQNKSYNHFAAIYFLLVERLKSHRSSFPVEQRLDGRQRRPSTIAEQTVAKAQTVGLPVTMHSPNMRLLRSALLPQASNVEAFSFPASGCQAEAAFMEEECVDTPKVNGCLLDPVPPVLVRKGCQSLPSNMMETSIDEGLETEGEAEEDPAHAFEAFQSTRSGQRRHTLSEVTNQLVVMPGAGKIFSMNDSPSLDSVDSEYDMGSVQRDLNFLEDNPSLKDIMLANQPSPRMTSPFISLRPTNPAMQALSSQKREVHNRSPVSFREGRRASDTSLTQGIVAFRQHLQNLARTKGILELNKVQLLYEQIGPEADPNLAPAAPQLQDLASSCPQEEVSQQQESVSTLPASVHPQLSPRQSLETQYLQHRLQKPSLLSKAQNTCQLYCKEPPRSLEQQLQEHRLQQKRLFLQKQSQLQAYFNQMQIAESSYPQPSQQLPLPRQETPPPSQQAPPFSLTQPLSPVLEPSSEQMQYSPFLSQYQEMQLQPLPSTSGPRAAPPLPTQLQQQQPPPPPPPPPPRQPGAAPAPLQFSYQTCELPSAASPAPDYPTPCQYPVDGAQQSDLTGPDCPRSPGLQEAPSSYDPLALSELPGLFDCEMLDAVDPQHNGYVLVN
Test [11] has as its target Phosphatidylinositol 3-kinase catalytic subunit type 3 (Homo sapiens, UniProt Q8NEB9). The test is described as follows: Selectivity interaction (Kinase panel (KiNativ target engagement assay in Jurkat cells)) EUB0001635a PIK3C3. The format is cell-based. The note with it: Selectivity number of off-targets 0.0, Selectivity number of targets 233.0, Source Knowledge https://www.sciencedirect.com/science/article/pii/S2451945619300674?via%3Dihub, at 1 µM.

Chain of Dual specificity protein kinase CLK2 (P49760 whole entry, looked up, canonical isoform): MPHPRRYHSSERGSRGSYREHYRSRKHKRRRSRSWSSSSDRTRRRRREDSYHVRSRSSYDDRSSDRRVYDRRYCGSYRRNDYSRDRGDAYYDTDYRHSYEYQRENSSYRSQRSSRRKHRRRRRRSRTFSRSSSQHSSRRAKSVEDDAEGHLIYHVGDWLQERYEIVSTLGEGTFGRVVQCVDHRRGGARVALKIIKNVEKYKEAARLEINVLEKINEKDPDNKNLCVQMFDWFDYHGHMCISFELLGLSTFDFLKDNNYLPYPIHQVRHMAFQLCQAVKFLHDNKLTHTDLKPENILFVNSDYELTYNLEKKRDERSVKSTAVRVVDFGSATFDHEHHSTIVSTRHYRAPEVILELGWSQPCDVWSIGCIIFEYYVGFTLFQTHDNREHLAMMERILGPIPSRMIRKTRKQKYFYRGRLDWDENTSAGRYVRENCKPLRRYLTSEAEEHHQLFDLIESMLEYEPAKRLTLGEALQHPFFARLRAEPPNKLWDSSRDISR
Chain of Phosphatidylinositol 4,5-bisphosphate 3-kinase catalytic subunit gamma isoform (Homo sapiens) (P48736 whole entry, looked up, canonical isoform): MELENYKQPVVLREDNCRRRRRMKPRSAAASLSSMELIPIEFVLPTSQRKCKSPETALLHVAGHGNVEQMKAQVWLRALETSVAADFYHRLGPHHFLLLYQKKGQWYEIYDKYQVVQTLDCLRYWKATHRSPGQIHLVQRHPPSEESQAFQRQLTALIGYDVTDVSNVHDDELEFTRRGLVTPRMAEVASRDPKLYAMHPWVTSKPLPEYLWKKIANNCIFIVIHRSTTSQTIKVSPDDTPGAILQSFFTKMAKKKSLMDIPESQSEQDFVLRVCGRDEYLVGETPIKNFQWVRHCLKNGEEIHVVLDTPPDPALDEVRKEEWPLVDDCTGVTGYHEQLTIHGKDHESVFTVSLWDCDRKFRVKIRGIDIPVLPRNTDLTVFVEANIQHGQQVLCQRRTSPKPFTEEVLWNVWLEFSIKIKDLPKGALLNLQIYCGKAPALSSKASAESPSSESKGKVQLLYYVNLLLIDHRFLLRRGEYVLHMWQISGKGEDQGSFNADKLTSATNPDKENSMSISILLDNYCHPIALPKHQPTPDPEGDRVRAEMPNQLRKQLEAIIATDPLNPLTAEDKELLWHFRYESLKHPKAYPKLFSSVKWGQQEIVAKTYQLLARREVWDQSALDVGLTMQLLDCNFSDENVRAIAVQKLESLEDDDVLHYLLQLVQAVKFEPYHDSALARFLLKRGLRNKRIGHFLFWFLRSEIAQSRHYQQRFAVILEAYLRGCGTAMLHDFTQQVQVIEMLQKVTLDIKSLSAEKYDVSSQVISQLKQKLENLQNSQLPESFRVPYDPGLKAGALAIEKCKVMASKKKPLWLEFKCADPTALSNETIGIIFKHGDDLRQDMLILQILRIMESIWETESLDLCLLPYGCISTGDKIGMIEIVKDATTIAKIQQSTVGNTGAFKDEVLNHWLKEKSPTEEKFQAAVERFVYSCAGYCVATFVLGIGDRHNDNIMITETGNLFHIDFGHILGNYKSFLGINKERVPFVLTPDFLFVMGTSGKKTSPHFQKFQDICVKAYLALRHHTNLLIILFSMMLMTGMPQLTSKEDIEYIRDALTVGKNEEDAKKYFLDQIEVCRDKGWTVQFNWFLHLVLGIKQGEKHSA
Chain of Ribosomal protein S6 kinase alpha-5 (Homo sapiens) (O75582 whole entry, looked up): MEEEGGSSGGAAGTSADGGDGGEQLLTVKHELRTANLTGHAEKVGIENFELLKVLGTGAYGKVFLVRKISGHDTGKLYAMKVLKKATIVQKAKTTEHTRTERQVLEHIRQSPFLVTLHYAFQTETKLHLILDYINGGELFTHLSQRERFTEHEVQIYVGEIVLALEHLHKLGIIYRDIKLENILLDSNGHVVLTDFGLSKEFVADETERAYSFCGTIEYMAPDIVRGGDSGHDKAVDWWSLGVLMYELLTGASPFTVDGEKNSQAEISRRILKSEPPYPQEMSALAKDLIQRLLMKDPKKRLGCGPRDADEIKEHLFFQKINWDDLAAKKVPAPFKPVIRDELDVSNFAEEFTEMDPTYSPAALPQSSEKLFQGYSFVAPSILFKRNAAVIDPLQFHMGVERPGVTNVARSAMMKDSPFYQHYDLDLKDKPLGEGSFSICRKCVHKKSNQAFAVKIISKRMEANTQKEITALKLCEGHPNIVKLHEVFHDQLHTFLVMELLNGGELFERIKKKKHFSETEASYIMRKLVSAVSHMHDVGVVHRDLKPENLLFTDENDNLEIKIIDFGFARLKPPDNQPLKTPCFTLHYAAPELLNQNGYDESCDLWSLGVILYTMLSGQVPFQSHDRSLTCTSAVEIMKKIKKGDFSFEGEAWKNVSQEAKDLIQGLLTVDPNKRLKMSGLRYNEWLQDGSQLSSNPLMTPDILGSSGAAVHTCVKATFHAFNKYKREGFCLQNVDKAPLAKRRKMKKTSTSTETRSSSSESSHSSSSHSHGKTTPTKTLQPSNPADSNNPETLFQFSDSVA
Chain of Calcium/calmodulin-dependent protein kinase type 1D (Homo sapiens) (Q8IU85 whole entry, looked up): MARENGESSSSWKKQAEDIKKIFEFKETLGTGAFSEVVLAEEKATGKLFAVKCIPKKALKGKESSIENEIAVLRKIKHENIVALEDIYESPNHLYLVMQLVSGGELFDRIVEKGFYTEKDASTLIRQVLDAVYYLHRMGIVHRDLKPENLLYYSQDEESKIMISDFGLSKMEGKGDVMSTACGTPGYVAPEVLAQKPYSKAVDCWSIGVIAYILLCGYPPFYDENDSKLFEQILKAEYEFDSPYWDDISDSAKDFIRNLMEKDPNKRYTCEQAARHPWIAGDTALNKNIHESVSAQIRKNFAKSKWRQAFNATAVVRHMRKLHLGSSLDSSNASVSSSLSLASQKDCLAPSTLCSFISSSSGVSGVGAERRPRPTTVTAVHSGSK

As to `COCC(=O)NC/C=C/c1ccc2ncnc(Nc3ccc(Oc4ccc(C)nc4)c(C)c3)c2c1` [CP-724714], the % of control in test [1] worked out at 87%; in [2], 73%.

In [3], `O=C(NOC[C@H](O)CO)c1ccc(F)c(F)c1Nc1ccc(I)cc1F` displayed a % of control of 96%. The compound `CNC(=O)Nc1ccc(-c2nc(N3CC4CCC(C3)O4)c3cnn(C4CCC5(CC4)OCCO5)c3n2)cc1` showed a % of control in [4] of 72%. In test [5], `Cc1cc([C@@H](C)Nc2ccccc2C(=O)O)c2nc(N3CCOCC3)cc(=O)n2c1` [AZD-6482] gave a % of control of 94%. As to `CN1Cc2nccc(-c3cn(C)nc3-c3ccc(F)cc3)c2C1=O`, the % of inhibition in [6] is -2%. `CN(C)C/C=C/C(=O)Nc1ccc(C(=O)N2CCCC(Nc3ncc(Cl)c(-c4c[nH]c5ccccc45)n3)C2)cc1` (stereo unspecified) returned a % of control in test [7] of 61%. Turning to `CCC(=O)N1CCN(c2ccc(-n3c(=O)ccc4cnc5ccc(-c6cnc7ccccc7c6)cc5c43)cc2C(F)(F)F)CC1`, the % of control in test [8] amounted to 99%; in [9] it was 100%.

`Nc1cnc(N2CCc3cc(S(=O)(=O)Nc4c(F)cc(Cl)cc4F)cc(N4CCCC4=O)c32)nc1` [TP-020n] gave a % of control in test [10] of 100%.

In the case of `C=CC(=O)Nc1ccc(C(=O)Nc2[nH]nc3c2CN(C(=O)N[C@H](CN(C)C)c2ccccc2)C3(C)C)cc1`, the % of engagement in test [11] is -5.1%.
